The text below walks through data of patent publication US20230226048A1, “NEW USE OF RABEXIMOD” (Cyxone AB, priority 2020, published 2023).

Structures are written as SMILES.

One data set deals with IL-6. Kind of data set: Phase IIa clinical trial in rheumatoid arthritis patients, IL-6 assessment (PK/PD population). The conditions noted are these: RA patients. It counts as in vivo, human. Here is the method: In a phase IIa clinical trial, a total of 225 patients diagnosed with active rheumatoid arthritis were randomized to receive one of the following treatments: • 6.25 mg of Rabeximod (daily) • 15 mg of Rabeximod (daily) • 37.5 mg of Rabeximod (daily) • Placebo
Study drug was provided in the form of a capsule comprising rabeximod in the form of a (micronized) powder. Over 200 patients completed the study.
The primary aim of the study was to evaluate the safety and efficacy of
Rabeximod treatment in RA patients. The study also involved Pharmacokinetic and Pharmacodynamic assessments in a subgroup (PK/PD Population) of 36 patients. This included assessment of changes in hsCRP, TNF-α, IL-6, COMP and anti-CCP.

In data set [1] the test system is mixed lymphocytes reaction (MLR) of human donors. Kind of data set: Mixed lymphocytes reaction (MLR) of human donors, 3[H]-thymidine incorporation. Type of data set: cell-based. Here is the method: Peripheral blood mononuclear cells (PBMCs) were prepared and modified for use as stimulator cells through γ-irradiation, or for use as responder cells. Rabeximod was then added to a responder and […] cell mix at various concentrations (of 10^−5, 10^−6, 10^−7 and 10^−8 M) before the cells were incubated. In the test, responder cells should proliferate more in the presence than in the absence of stimulator cells.
Normal PBMCs were obtained from healthy volunteers at the blood bank (Shiba medical center, Tel-Hashomer). Blood donations tested negative to HBSAg, HIV, HCV, ALT, HTLV and TPHA. Twelve donors were obtained in 3 sessions following review by the Committee for Ethical Conduct in the Care and Use of Laboratory Animals of the Hebrew University, Jerusalem, the Institutional Animal Care and Use Committee (IACUC) responsible for approving Harlan Biotech (Israel) animal usage application in compliance with its respective registration under National Institues of Health (NIH) accreditation no. OPR-A01-5011. Peripheral blood mononuclear cells (PBMCs) were freshly separated from heparinized full blood by Ficoll-Hypaque (IsoPrep, Robbins Scientific) density gradient centrifugation. After two washes with PBS, cells were diluted in PBMCs medium and counted. Since MLR was conducted in two-ways format, each donor was utilized as stimulator and as responder.
In each session, 0.87*10^6/ml PBMCs cells from each donor were mixed and then γ-irradiated with 4000 rad (about 6.25 minutes). Cells were diluted in PBMCs medium to give the highest concentration). Further dilutions in ×2-fold were done in PBMCs medium. 50*10^6 were taken from each donor to obtain a mixture of stimulators in each experiment.
Cells were resuspended in PBMCs medium at approximately 2*10^6 cells/ml and incubated in flasks for 2 hours at 5% CO2, 37° C. Adherent cells were dis-carded while non-adherent cells in the supernatant were centrifuged at 700 g for 10 minutes. To enrich for T lymphocytes, cells were resuspended in 5% PBMCs medium and loaded on nylon wool columns (Uni-Sorb, Novamed) at 8*10^7 cells/ml, according to manufacturer instructions.
Cells were seeded in 96-well round-bottom plates at the varying ratios of stimulator vs. responder cells.
^3[H]-Thymidine was added to the cell culture at 18 hrs before the end of the cultivation period (6 days). Cells were harvested and transferred to filters (unifilters GF/C) using the Packard filtermate Cell harvester. Following addition of scintillation fluid (MicroScint20™) to the filters, they were counted in Packard microplate scintillation β-counter. Results are expressed as Counting Per Minutes (CPM).

Data set [2] deals with wild type and TLR4 deficient mice. Kind of data set: Collagen antibody-induced arthritis (CAIA) boosted with TLR stimuli in mice, arthritis scoring. It counts as in vivo, mouse. The following applies: for arthritis severity: 40 mg/kg subcutaneously every second day, day 5 to 15. The text has this: QB mice (10-20 weeks) were generated from a (BALB/cxB10.Q) F1 cross. C57BL/10ScNJ mice (Tlr4^lps-del), hereafter called Tlr4^del, were ordered from The Jackson Laboratory (The Jackson Laboratory, Bar Harbor, Me., USA). These mice have deletion of the Tlr4 gene that results in absence of mRNA and protein and is thus defective in response to LPS stimulation. These mice were crossed together with C57BL/10.Q mice from Medical Inflammation Research, Lund university, Lund, Sweden in order to generate mice expressing major histocompatibility complex (MHC) Aq. Mice were kept and bred in a climate-controlled environment with a 12 h light/dark cycle, fed standard rodent chow and water ad libitum in the animal facility of Medical Inflammation Research, Lund University, Lund, Sweden.
Litters were genotyped for MHC using microsatellite marker D17mit230. Genotyping of Tlr4 was performed according to an earlier described method. Briefly, DNA was prepared from biopsies and primers flanking the 70 kb deletion or amplifying the wild-type sequence absent in the TLR4 deleted mice were used.
The mice were matched according to age and sex, and littermates were used in all experiments. All experiments were approved according to Malmö/Lund ethical committee license M107-07.
Male mice, older than 8 weeks, were injected intravenously on day 0 with a cocktail of four monoclonal antibodies (4 mg in a total volume of 310 μl/mouse) containing M2139, CIIC1, CIIC2 and UL1 antibodies binding to J1, C1^I, D3 and U1 epitopes of CII in order to induce CAIA. Day 5 mice were injected with LPS from Escherichia coli (Sigma-Aldrich, St Louis, Mis-souri, USA), deoxycytoylate-phosphate-deoxyguanylate (CpG) DNA (sequence 1668, MWG; Eurofins MWG, Erdersberg, Germany) or lipomannan (LM) from Mycobacterium segma-tis (InvivoGen, San Diego, Calif., USA) intraperitoneally to boost disease (35-50 μg/mouse in 1 ml phosphate-buffered saline (PBS)).
Mice were blindly scored daily to every second day until the end of the experiment. […]

For data set [3] the following is noted: cited from earlier work.
For the next data set, the system named is murine arthritis model. The conditions noted are these: murine arthritis model in mice; cited from earlier work.

As to `Cc1cc2nc3c4cc(Cl)ccc4n(CC(=O)NCCN(C)C)c3nc2cc1C` [Rabeximod, 9-Chloro-2,3-dimethyl-6-(N,N-dimethylaminoethylamino-2-oxoethyl)-6H-indolo-[2,3-b]quinoxaline], the “change in IL-6 median value from baseline” value in the data set on IL-6 (6.25 mg daily, Week 12) is −185.0 IU/L; in the data set on IL-6 (6.25 mg daily, Week 16), −804 IU/L; in the data set on IL-6 (15 mg daily, Week 12) it was −1679.0 IU/L; in the data set with IL-6 (15 mg daily, Week 16), −1879 IU/L; with IL-6 (37.5 mg daily, Week 12) it was 136.0 IU/L; in the data set on IL-6 (37.5 mg daily, Week 16), −1124 IU/L. Besides, the “inhibition of MLR activity” value is reported as “strong inhibitory effect” in data set [1] (10^−5 M, all responder:stimulator ratios); “the inhibition decreased to a lesser extent” in data set [1] (10^−8 M); “less effective” in data set [1] (lower doses (10^−7, 10^−8 M)); “highly inhibitory” in data set [1] (two highest concentrations (10^−5, 10^−6 M), all tested ratios). The arthritis severity result in data set [2] (TLR4 deficient mice) and in data set [2] (wild type mice) was “reduces” each time. For the same molecule, in data set [2] (downstream mechanism, likely TLR2 signalling pathway), the “activation of macrophages in animal models of arthritis” value is given as “inhibits”. In data set [3], the “fraction in plasma bound to protein” value is recorded as “approximately 99%”. Besides, in the data set with murine arthritis model, the arthritogenic scoring result is listed as “statistically significant durable reductions”. The paw swelling result in the data set on murine arthritis model is given as “statistically significant durable reductions”. In addition, the paw thickness result in the data set on murine arthritis model is “statistically significant durable reductions”.
